Tests used:
[1] = Phase 1 study of IV ganaxolone in healthy volunteers (safety, pharmacokinetics, sedation); type: in vivo, human
Procedure: The safety, pharmacokinetics and pharmacodynamics of IV ganaxolone were investigated in healthy 36 volunteers, in which ganaxolone was administered as a bolus dosing (Stage 1) or as a bolus dose followed by a continuous infusion (Stage 2). Ten of the 36 subjects enrolled were women. Stage 1 enrolled and dosed subjects in 4 cohorts (A-D): 6 subjects in Cohort A (10 mg ganaxolone IV bolus in 3 subjects and 30 mg ganaxolone bolus in 3 subjects over 5-minutes), 8 subjects in Cohort B (20 mg ganaxolone bolus over 2-minutes), 8 subjects in Cohort C (30 mg ganaxolone bolus over 1-hour) and 8 subjects in Cohort D (10 mg ganaxolone bolus over 1-hour). Cohorts B, C and D included 2 placebo subjects in each cohort. Stage 2 of the study dosed a total of 6 subjects with a 6 mg bolus followed by a 4-hour infusion at 20 mg/h. Ten of the 36 subjects enrolled in the study were women.
A Phase 1 study in healthy volunteers investigating the safety of IV ganaxolone, infusion of 30 mg/hr for 1 hour, 20 mg over 2 minutes and 20 mg/hr for 4 hours led to peak concentrations of 258, 441 and 215 ng/mL, respectively, without any safety concerns. Sedation was assessed using the Modified Observers Assessment of Alertness/Sedation (MOAAS) scale. On this scale, score 5 indicates no sedation (responds readily to name spoken in normal tone) while score 1 indicates deep sedation (responds only after painful trapezius squeeze). […] The sedation scores reversed quickly after the infusion was stopped. The highest bolus dose tested was 30 mg, which was infused over 5-minutes. This dose led to peak concentration levels (Cmax) of >1,000 ng/mL with no safety concerns (except sedation).

[2] = test system: women with postpartum depression; assay: Phase 2A study Cohort 6: efficacy (HAM-D17, CGI-I, EPDS, STAI6) versus placebo; type: in vivo, human; conditions: for Placebo-adjusted difference, HAM-D17 (LS Mean), early efficacy / Placebo-adjusted difference, HAM-D17 (LS Mean), late efficacy: Cohort 6: IV 20 mg/hr for 6 h then 900 mg orally for 28 days; for Placebo-adjusted difference, HAM-D17 (LS Mean), late efficacy: Day 29
Procedure: Approximately 10-30 subjects are randomized into each cohort.
The primary efficacy endpoint is HAM-D17 total score change from baseline to 60 hours post-infusion (on Day 3) for Cohorts 1-3 and to Day 29 for Cohort 6. The primary analysis in each cohort is done using the mITT set. Although the trial is not powered for inferential analysis and there is no consideration for control of type 1 error across multiple cohorts, a clinically meaningful numeric difference in means of 3-4 points, based on mITT analysis, between ganaxalone and placebo treatment groups is considered an indication of acceptable efficacy and is be the most influential outcome in the overall assessment of the efficacy of ganaxolone in treating PPD.
The trial also evaluates the following secondary endpoints at each post-baseline data collection time point to provide additional evidence of the efficacy of ganaxolone in treating PPD: • Change from baseline in HAM-D17 total score other than at 60 hours post-infusion (on Day 3) for Cohorts 1-3 and to Day 29 for Cohort 6 • Change from baseline in EPDS total score • Change from baseline in STAI6 • CGI-I. Exploratory Endpoints

CC(=O)[C@H]1CC[C@H]2[C@@H]3CC[C@H]4C[C@](C)(O)CC[C@]4(C)[C@H]3CC[C@]12C [ganaxolone, 3α-hydroxy-3β-methyl-5α-pregnan-20-one]
Peak concentration ([1]; 20 mg over 2 minutes): 441 ng/mL
Peak concentration ([1]; 20 mg/hr for 4 hours): 215 ng/mL
Treatment emergent AEs, seriousness and intensity ([1]; Stages 1 and 2): None of the treatment emergent AEs were serious, and all were of mild intensity
Cmax ([1]; human, in vivo, intravenous, bolus infusion of 30 mg over 5-minutes, read-out: Peak concentration levels (Cmax)): > 1000 ng/mL
Peak concentration ([1]; infusion of 30 mg/hr for 1 hour): 258 ng/mL
Modified Observers Assessment of Alertness/Sedation (MOAAS) score ([1]; score 5 = no sedation, 1 = deep sedation): vast majority of the scores were 5
EPDS and STAI6 versus placebo ([2]; Cohort 6): numeric advantage at all timepoints till Day 29
Placebo-adjusted difference, HAM-D17 (LS Mean), early efficacy ([2]; PP, 6 hours): −3.4
Placebo-adjusted difference, HAM-D17 (LS Mean), early efficacy ([2]; PP, Day 2): −2.7
Placebo-adjusted difference, HAM-D17 (LS Mean), late efficacy ([2]; PP): −2.6
Placebo-adjusted difference, HAM-D17 (LS Mean), early efficacy ([2]; mITT, 6 hours): −2.8
Placebo-adjusted difference, HAM-D17 (LS Mean), early efficacy ([2]; mITT, Day 2): −2.6
Placebo-adjusted difference, HAM-D17 (LS Mean), late efficacy ([2]; mITT): +1
HAMD17 change from baseline, PP analysis and sensitivity by site analyses ([2]; Cohort 6, after Day 2): favors GNX
HAMD17 decrease versus placebo ([2]; Cohort 6, at 6 hours and on Day2, both mITT, PP): favor ganaxolone
CGI-I decrease versus placebo ([2]; Cohort 6, both mITT, PP, early timepoint): favors GNX
HAMD17 mITT analysis at late and intermediate timepoints during oral treatment ([2]; Cohort 6, mITT): not different from placebo
CGI-I versus placebo ([2]; Cohort 6, mITT and PP, Day 2, Day 8, Day 15, Day 29 (p<0.05)): favors GNX at all timepoints
